Laboratory results published in paper PMC3089437 (2011).

Biological target: mouse CB2 (mCB2) (Mus musculus, UniProt P47936)
Type: binding

Sequence of mouse CB2 (mCB2) (P47936 whole entry): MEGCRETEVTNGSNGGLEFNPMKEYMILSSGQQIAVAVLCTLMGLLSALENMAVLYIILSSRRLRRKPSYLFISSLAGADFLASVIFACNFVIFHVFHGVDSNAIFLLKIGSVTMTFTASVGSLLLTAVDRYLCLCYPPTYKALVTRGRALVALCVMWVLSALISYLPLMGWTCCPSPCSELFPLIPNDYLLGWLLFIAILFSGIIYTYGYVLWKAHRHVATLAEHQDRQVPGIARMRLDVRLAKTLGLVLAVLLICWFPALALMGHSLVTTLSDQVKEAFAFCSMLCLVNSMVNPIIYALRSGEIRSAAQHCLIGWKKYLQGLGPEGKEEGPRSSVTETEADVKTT

## CCCCCCC(C)(C)c1cc(O)c2c(c1)oc(=O)c1ccc(OC)cc12 [AM1710, 3-(1′,1′-dimethylheptyl)-1-hydroxy-9-methoxy-6H-benzo[c]chromene-6-one]
  Ki: 17 nM
